Reference: patent US6660752B2, “2,6-Substituted chroman derivatives useful as beta-3 adrenoreceptor agonists” (Bayer Pharmaceuticals Corporation, priority 2001, dated 2003)
pEC50: −log10 of the molar value.

Each compound was assayed against T1, human beta-3-adrenergic receptor (Homo sapiens, UniProt P13945) (assay: cAMP production (beta-3 agonist activity) in CHO cells stably expressing human beta-3-adrenergic receptor, cAMP SPA). Conditions: CHO cells expressing full-length human beta-3-adrenergic receptor, 30 min incubation, 10 μM to 3 nM, read-out: Beta-3 Agonistic Activity: Compounds with EC50 values ≦1 μM.
T1 construct: stably express full-length human beta-3-adrenergic receptor; expressed in transfected cells; host or cells: Chinese hamster ovary (CHO) cells
Type: cell-based
Description: Chinese hamster ovary (CHO) cells that stably express full-length human beta-3-adrenergic receptor (Granneman et al., Mol. Pharmacol. 44:264-270, 1993) can be used in the following procedure. The cell line is grown in 90% F12 nutrient mixture (HAM), 10% fetal bovine serum, 100 units/ml penicillin G sodium, […] streptomycin sulfate, and 2 mM L-glutamine at 37° C. in 95% air and 5% CO2. The transfected cell line is maintained with G-418 (800 μg/ml).
To test the agonist activity, cells are exposed to test compound and then assayed for cAMP production. CHO cells (100 μl) are plated at 5×10^4 cells/well of a 96-well plate (Costar, Cambridge, Mass.) to achieve 70% confluency the next day. After overnight incubation at 37° C., media is removed and the cells are treated for 30 minutes at 37° C. with KRP buffer (120 mM NaCl, 5.1 mM KCl, 0.6 mM MgSO4.7H2O, 0.8 mM CaCl2.H2O, […] phosphate buffer, […] Hepes pH 7.4)+[…] IBMX ([…]), +1% DMSO, +/− test compounds ([…]). Test compounds are assayed from 10 μM to 3 nM with 3-fold serial dilutions. The control agonist, isoproterenol (10 mM stock in 1.1 mM ascorbate), is assayed by 3-fold dilution beginning at 1 μM. After a 30-minute incubation with the test compounds, the buffer/compound mixture is removed. The cells are lysed and cAMP levels are measured using the cAMP SPA screening assay system (Amersham, Arlington Heights, Ill.). The cAMP values are then plotted to determine the EC50 of each compound tested.

T1 sequence (P13945 whole entry): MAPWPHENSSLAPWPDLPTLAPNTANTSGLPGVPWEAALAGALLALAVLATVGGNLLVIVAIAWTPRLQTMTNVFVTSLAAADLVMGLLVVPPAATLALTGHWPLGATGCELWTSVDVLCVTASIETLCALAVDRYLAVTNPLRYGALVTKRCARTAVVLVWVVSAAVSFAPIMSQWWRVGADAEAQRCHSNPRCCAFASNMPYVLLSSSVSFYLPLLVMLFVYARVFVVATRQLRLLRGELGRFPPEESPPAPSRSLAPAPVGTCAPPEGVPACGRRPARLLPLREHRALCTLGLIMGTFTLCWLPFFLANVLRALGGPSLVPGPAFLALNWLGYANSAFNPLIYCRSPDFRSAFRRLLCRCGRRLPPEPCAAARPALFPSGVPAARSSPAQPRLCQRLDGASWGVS

Structure (SMILES)	pEC50
N#Cc1ccc(NS(=O)(=O)c2ccc(-c3ccc4c(c3)CC[C@H](CNC[C@H](O)c3cccnc3)O4)cc2)cc1 [Example 256]	≥ 6.00
N#Cc1ccc(NS(=O)(=O)c2cccc(-c3ccc4c(c3)CC[C@H](CNC[C@H](O)c3cccnc3)O4)c2)cc1 [Example 257]	≥ 6.00
O=C1CCc2cc(NS(=O)(=O)c3ccc(-c4ccc5c(c4)CC[C@H](CNC[C@H](O)c4cccnc4)O5)cc3)ccc21 [Example 258]	≥ 6.00
O=S(=O)(Nc1cccnc1)c1cccc(-c2ccc3c(c2)CC[C@H](CNC[C@H](O)c2cccnc2)O3)c1 [Example 260]	≥ 6.00
O=S(=O)(Nc1nccs1)c1ccc(-c2ccc3c(c2)CC[C@H](CNC[C@H](O)c2cccnc2)O3)cc1 [Example 265, 4-[(2R)-2-({[(2R)-2-hydroxy-2-(3-pyridinyl)ethyl]amino}methyl)-3,4-dihydro-2H-chromen-6-yl]-N-(1,3-thiazol-2-yl)benzenesulfonamide]	≥ 6.00
COc1ccc(-c2ccc3c(c2)CC[C@H](CNC[C@H](O)c2cccnc2)O3)cc1S(=O)(=O)Nc1nccs1 [Example 266]	≥ 6.00
COc1ccc(-c2ccc3c(c2)CC[C@H](CNC[C@H](O)c2cccnc2)O3)cc1S(=O)(=O)Nc1nccc(C)n1 [Example 269]	≥ 6.00
COc1cc(OC)nc(NS(=O)(=O)c2cc(-c3ccc4c(c3)CC[C@H](CNC[C@H](O)c3cccnc3)O4)ccc2OC)n1 [Example 270]	≥ 6.00
COc1cc(C)nc(NS(=O)(=O)c2cc(-c3ccc4c(c3)CC[C@H](CNC[C@H](O)c3cccnc3)O4)ccc2OC)n1 [Example 271]	≥ 6.00
COc1ccc(-c2ccc3c(c2)CC[C@H](CNC[C@H](O)c2cccnc2)O3)cc1S(=O)(=O)Nc1ncccn1 [Example 272]	≥ 6.00
COc1cc(OC)nc(NS(=O)(=O)c2ccc(-c3ccc4c(c3)CC[C@H](CNC[C@H](O)c3cccnc3)O4)cc2OC(F)(F)F)n1 [Example 274, N-(4,6-dimethoxy-2-pyrimidinyl)-4-[(2R)-2-({[(2R)-2-hydroxy-2-(3-pyridinyl)ethyl]amino}methyl)-3,4-dihydro-2H-chromen-6-yl]-2-(trifluoromethoxy)benzenesulfonamide]	≥ 6.00
COc1cc(C)nc(NS(=O)(=O)c2ccc(-c3ccc4c(c3)CC[C@H](CNC[C@H](O)c3cccnc3)O4)cc2OC(F)(F)F)n1 [Example 275, 4-[(2R)-2-({[(2R)-2-hydroxy-2-(3-pyridinyl)ethyl]amino}methyl)-3,4-dihydro-2H-chromen-6-yl]-N-(4-methoxy-6-methyl-2-pyrimidinyl)-2-(trifluoromethoxy)benzenesulfonamide]	≥ 6.00
O=S(=O)(Nc1nc2ccccc2s1)c1ccc(-c2ccc3c(c2)CCC(CNC[C@H](O)c2cccnc2)O3)cc1 (some centres unmarked) [Example 276]	≥ 6.00
COc1ccc(-c2ccc3c(c2)CCC(CNC[C@H](O)c2cccnc2)O3)cc1S(=O)(=O)Nc1ccc(C#N)cc1 (some centres unmarked) [Example 277]	≥ 6.00
O=C(CC(F)(F)F)NS(=O)(=O)c1ccc(-c2ccc3c(c2)CC[C@H](CNC[C@H](O)c2cccnc2)O3)cc1 [Example 284, 4-[(2R)-2-({[(2R)-2-hydroxy-2-(3-pyridinyl)ethyl]amino}methyl)-3,4-dihydro-2H-chromen-6-yl]-N-(3,3,3-trifluoropropanoyl)benzenesulfonamide]	≥ 6.00
O=C(NS(=O)(=O)c1ccc(-c2ccc3c(c2)CC[C@H](CNC[C@H](O)c2cccnc2)O3)cc1)C1CC1 [Example 285, N-(cyclopropylcarbonyl)-4-[(2R)-2-({[(2R)-2-hydroxy-2-(3-pyridinyl)ethyl]amino}methyl)-3,4-dihydro-2H-chromen-6-yl]benzenesulfonamide]	≥ 6.00
O=C(NS(=O)(=O)c1ccc(-c2ccc3c(c2)CC[C@H](CNC[C@H](O)c2cccnc2)O3)cc1)C(C(F)(F)F)C(F)(F)F [Example 288]	≥ 6.00
CCC(CC)C(=O)NS(=O)(=O)c1ccc(-c2ccc3c(c2)CC[C@H](CNC[C@H](O)c2cccnc2)O3)cc1 [Example 289]	≥ 6.00
O=C(NS(=O)(=O)c1ccc(-c2ccc3c(c2)CC[C@H](CNC[C@H](O)c2cccnc2)O3)cc1)c1ccccc1 [Example 294, N-benzoyl-4-[(2R)-2-({[(2R)-2-hydroxy-2-(3-pyridinyl)ethyl]amino}methyl)-3,4-dihydro-2H-chromen-6-yl]benzenesulfonamide]	≥ 6.00

Now from value to compound:

pEC50	Structure (SMILES)
≥ 6.00	O=C1CCc2cc(NS(=O)(=O)c3cccc(-c4ccc5c(c4)CC[C@H](CNC[C@H](O)c4cccnc4)O5)c3)ccc21 [Example 255]
≥ 6.00	N#Cc1cc([N+](=O)[O-])ccc1NS(=O)(=O)c1cccc(-c2ccc3c(c2)CC[C@H](CNC[C@H](O)c2cccnc2)O3)c1 [Example 259, N-(2-cyano-4-nitrophenyl)-3-[(2R)-2-({[(2R)-2-hydroxy-2-(3-pyridinyl)ethyl]amino}methyl)-3,4-dihydro-2H-chromen-6-yl]benzenesulfonamide]
≥ 6.00	O=S(=O)(Nc1ncccn1)c1cccc(-c2ccc3c(c2)CC[C@H](CNC[C@H](O)c2cccnc2)O3)c1 [Example 261, 3-[(2R)-2-({[(2R)-2-hydroxy-2-(3-pyridinyl)ethyl]amino}methyl)-3,4-dihydro-2H-chromen-6-yl]-N-(2-pyrimidinyl)benzenesulfonamide]
≥ 6.00	N#Cc1ccc(NS(=O)(=O)c2ccc(-c3ccc4c(c3)CC[C@H](CNC[C@H](O)c3cccnc3)O4)cc2OC(F)(F)F)cc1 [Example 262, N-(4-cyanophenyl)-4-[(2R)-2-({[(2R)-2-hydroxy-2-(3-pyridinyl)ethyl]amino}methyl)-3,4-dihydro-2H-chromen-6-yl]-2-(trifluoromethoxy)benzenesulfonamide]
≥ 6.00	CC(=O)c1ccc(NS(=O)(=O)c2ccc(-c3ccc4c(c3)CC[C@H](CNC[C@H](O)c3cccnc3)O4)cc2OC(F)(F)F)cc1 [Example 263]
≥ 6.00	CC(=O)c1ccc(NS(=O)(=O)c2ccc(-c3ccc4c(c3)CC[C@H](CNC[C@H](O)c3cccnc3)O4)cc2)cc1 [Example 264]
≥ 6.00	COc1cc(OC)nc(NS(=O)(=O)c2ccc(-c3ccc4c(c3)CC[C@H](CNC[C@H](O)c3cccnc3)O4)cc2)n1 [Example 267]
≥ 6.00	Cc1ccnc(NS(=O)(=O)c2ccc(-c3ccc4c(c3)CC[C@H](CNC[C@H](O)c3cccnc3)O4)cc2)n1 [Example 268, 4-[(2R)-2-({[(2R)-2-hydroxy-2-(3-pyridinyl)ethyl]amino}methyl)-3,4-dihydro-2H-chromen-6-yl]-N-(4-methyl-2-pyrimidinyl)benzenesulfonamide]
≥ 6.00	COc1cc(C)nc(NS(=O)(=O)c2ccc(-c3ccc4c(c3)CC[C@H](CNC[C@H](O)c3cccnc3)O4)cc2)n1 [Example 273, 4-[(2R)-2-({[(2R)-2-hydroxy-2-(3-pyridinyl)ethyl]amino}methyl)-3,4-dihydro-2H-chromen-6-yl]-N-(4-methoxy-6-methyl-2-pyrimidinyl)benzenesulfonamide]
≥ 6.00	COc1ccc(-c2ccc3c(c2)CC[C@H](CNC[C@H](O)c2cccnc2)O3)cc1S(=O)(=O)Nc1ccc(C(C)=O)cc1 [Example 280]
≥ 6.00	CCOCC(=O)NS(=O)(=O)c1ccc(-c2ccc3c(c2)CC[C@H](CNC[C@H](O)c2cccnc2)O3)cc1 [Example 286, N-(ethoxyacetyl)-4-[(2R)-2-({[(2R)-2-hydroxy-2-(3-pyridinyl)ethyl]amino}methyl)-3,4-dihydro-2H-chromen-6-yl]benzenesulfonamide]
≥ 6.00	CC(C)(C)CC(=O)NS(=O)(=O)c1ccc(-c2ccc3c(c2)CC[C@H](CNC[C@H](O)c2cccnc2)O3)cc1 [Example 287, N-(3,3-dimethylbutanoyl)-4-[(2R)-2-({[(2R)-2-hydroxy-2-(3-pyridinyl)ethyl]amino}methyl)-3,4-dihydro-2H-chromen-6-yl]benzenesulfonamide]
≥ 6.00	CC(C)C(=O)NS(=O)(=O)c1ccc(-c2ccc3c(c2)CC[C@H](CNC[C@H](O)c2cccnc2)O3)cc1 [Example 290]
≥ 6.00	COCC(=O)NS(=O)(=O)c1ccc(-c2ccc3c(c2)CC[C@H](CNC[C@H](O)c2cccnc2)O3)cc1 [Example 291]
≥ 6.00	CC(C)(C)C(=O)NS(=O)(=O)c1ccc(-c2ccc3c(c2)CC[C@H](CNC[C@H](O)c2cccnc2)O3)cc1 [Example 292, N-(2,2-dimethylpropanoyl)-4-[(2R)-2-({[(2R)-2-hydroxy-2-(3-pyridinyl)ethyl]amino}methyl)-3,4-dihydro-2H-chromen-6-yl]benzenesulfonamide]
≥ 6.00	COc1cccc(C(=O)NS(=O)(=O)c2ccc(-c3ccc4c(c3)CC[C@H](CNC[C@H](O)c3cccnc3)O4)cc2)c1 [Example 293, 4-[(2R)-2-({[(2R)-2-hydroxy-2-(3-pyridinyl)ethyl]amino}methyl)-3,4-dihydro-2H-chromen-6-yl]-N-(3-methoxybenzoyl)benzenesulfonamide]
